This is an account of results in patent US20240101572A1, “DIHYDROOXADIAZINONE COMPOUND AND PHARMACEUTICAL USE THEREOF” (Japan Tobacco Inc., priority 2022, published 2024).

Like-named read-outs stand apart in the source and are kept apart here.

One experiment deals with full-length human PLD1 (Homo sapiens (Human), UniProt Q13393). The experiment can be described thus: Evaluation of human PLD1 enzyme inhibitory activity (Amplex Red / choline oxidase fluorescence). It counts as biochemical. In short, it runs like this: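 Fluorescence read-out couples choline to Amplex Red via choline oxidase and peroxidase after a 60 min room-temperature reaction. Enzyme: FLAG-tagged full-length human PLD1 from Expi293F cells, anti-FLAG purified; substrate diheptanoyl phosphatidylcholine; HEPES pH 7.5 assay buffer with 0.01% NP-40, 0.1% BSA, 5% DMSO final.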

For another experiment, the target named is full-length human PLD2 (Homo sapiens (Human), UniProt O14939). The experiment can be described thus: Evaluation of human PLD2 enzyme inhibitory activity (Amplex Red / choline oxidase fluorescence). It counts as biochemical. In short, it runs like this:
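Released choline was read by Amplex Red fluorescence coupled to choline oxidase and HRP after a 60 min room-temperature reaction. Substrate was diheptanoyl phosphatidylcholine, added as a 6 mmol/L solution, and enzyme was FLAG-tagged full-length human PLD2 from Expi293F, added as a 6 nmol/L solution. Buffer was 50 mM HEPES pH 7.5 with 5% final DMSO.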

[1] abbreviates: full-length human PLD1 enzyme, read-out: PLD1 IC50.
[2] abbreviates: full-length human PLD2 enzyme, read-out: PLD2 IC50.

full-length human PLD1, sequence (Q13393 other isoform, or with tags, fused parts or gaps): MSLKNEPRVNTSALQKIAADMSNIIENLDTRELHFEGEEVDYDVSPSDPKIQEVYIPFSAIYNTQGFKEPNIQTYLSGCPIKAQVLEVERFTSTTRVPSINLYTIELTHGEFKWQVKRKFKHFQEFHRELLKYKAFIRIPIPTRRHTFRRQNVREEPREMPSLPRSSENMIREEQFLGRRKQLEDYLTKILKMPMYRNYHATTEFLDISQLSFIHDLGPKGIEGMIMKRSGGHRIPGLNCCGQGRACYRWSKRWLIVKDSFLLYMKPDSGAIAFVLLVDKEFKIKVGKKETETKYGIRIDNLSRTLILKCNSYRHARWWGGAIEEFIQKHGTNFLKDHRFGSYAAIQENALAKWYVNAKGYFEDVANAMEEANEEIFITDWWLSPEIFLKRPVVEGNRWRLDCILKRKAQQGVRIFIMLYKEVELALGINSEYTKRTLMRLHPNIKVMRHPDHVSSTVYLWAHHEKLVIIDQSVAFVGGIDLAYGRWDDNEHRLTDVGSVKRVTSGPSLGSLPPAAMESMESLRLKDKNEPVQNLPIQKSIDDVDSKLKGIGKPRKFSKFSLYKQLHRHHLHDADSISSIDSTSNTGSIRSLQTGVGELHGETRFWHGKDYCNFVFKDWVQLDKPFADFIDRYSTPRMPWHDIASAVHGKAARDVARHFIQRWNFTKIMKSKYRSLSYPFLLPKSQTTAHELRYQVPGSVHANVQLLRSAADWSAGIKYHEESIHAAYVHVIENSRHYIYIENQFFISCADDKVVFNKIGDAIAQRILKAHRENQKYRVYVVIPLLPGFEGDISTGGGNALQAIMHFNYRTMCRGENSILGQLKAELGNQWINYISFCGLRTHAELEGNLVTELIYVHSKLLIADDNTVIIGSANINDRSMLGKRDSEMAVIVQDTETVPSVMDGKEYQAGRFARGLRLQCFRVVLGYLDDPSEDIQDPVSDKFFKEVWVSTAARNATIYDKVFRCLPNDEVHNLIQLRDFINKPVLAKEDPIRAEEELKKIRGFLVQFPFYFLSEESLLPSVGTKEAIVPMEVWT
full-length human PLD2, sequence (O14939 whole entry): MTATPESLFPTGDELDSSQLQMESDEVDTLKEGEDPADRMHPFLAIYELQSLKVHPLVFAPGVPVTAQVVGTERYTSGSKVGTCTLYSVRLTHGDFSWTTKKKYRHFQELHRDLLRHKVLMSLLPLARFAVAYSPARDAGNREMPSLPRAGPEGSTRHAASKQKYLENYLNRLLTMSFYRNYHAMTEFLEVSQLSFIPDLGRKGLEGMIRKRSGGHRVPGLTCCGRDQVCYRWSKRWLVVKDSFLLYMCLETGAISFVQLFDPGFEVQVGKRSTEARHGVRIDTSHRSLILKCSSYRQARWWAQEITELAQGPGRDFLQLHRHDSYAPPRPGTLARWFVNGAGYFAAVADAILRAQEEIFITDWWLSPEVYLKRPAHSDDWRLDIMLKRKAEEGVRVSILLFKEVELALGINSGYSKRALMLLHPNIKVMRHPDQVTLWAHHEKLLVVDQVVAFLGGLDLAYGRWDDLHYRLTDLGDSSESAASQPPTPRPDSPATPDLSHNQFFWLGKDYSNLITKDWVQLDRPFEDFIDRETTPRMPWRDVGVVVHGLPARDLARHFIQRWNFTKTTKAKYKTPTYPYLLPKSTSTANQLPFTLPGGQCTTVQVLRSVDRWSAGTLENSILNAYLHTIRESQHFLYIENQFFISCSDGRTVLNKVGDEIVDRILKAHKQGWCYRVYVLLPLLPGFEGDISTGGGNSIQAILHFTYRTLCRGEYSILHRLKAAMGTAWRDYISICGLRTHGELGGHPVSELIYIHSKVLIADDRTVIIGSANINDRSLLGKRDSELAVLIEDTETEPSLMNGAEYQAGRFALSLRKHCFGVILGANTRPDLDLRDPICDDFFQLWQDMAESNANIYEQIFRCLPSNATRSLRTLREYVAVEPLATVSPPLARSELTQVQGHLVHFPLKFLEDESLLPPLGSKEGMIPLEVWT

`Cc1cc(C(=O)N[C@@H](C)C[C@H]2CC[C@]3(CC2)OC(=O)NN=C3c2cnc(Cl)cc2N2CCOCC2)[nH]n1` [Example 225]: the values for the half-maximal inhibitory concentration (IC50) at full-length human PLD1 (setting [1]) and on full-length human PLD2 (setting [2]) were 513 nM and 203 nM, respectively.
The corresponding values for `C[C@@H](CN1CCC2(CC1)OC(=O)NN=C2c1cc(C#N)ccc1Br)NC(=O)c1cn(C)cn1` [Example 2-054] are 37 nM and below 10 nM.
The corresponding values for `CCCC(=O)N[C@@H](C)C[C@H]1CC[C@]2(CC1)OC(=O)NN=C2c1ccc(F)cc1Br` [Example 42] are 247 nM and 261 nM.
The corresponding values for `Cc1cc(C(=O)N[C@@H](C)CN2CCC3(CC2)OC(=O)NN=C3c2cccc(C(F)(F)F)c2Br)[nH]n1` [Example 2-052] are 21 nM and below 10 nM.
As for `CNC(=O)C(=O)N[C@@H](C)CN1CC[C@]2(C[C@@H]1C)OC(=O)NN=C2c1ccc(C#N)cc1Cl` [Example 280], the IC50 (usually the concentration that inhibits the measured activity by half) on full-length human PLD1 (setting [1]) came out at 147 nM; on full-length human PLD2 (setting [2]), 316 nM.
The corresponding values for `Cc1cc(C(=O)N[C@@H](C)C[C@]2(F)CC[C@@]3(CC2)OC(=O)NN=C3c2cc(C#N)ccc2Br)[nH]n1` [Example 311] are 15 nM and below 10 nM.
The matching figures for `CNC(=O)C(=O)N[C@@H](C)CN1C[C@H]2CC[C@@H](C1)[C@@]21OC(=O)NN=C1c1ccc(F)cc1Cl` [Example 196]: 27 nM and below 10 nM.
The matching figures for `CC(=O)C(=O)N[C@@H](C)C[C@H]1CC[C@]2(CC1)OC(=O)NN=C2c1ccc(F)cc1Br` [Example 30]: 123 nM and 153 nM.
For the compound `CNC(=O)C(=O)N[C@@H](C)C[C@H]1CC[C@]2(CC1)OC(=O)NN=C2c1cnc(C(C)=O)cc1C` [Example 193], the concentration for half-maximal inhibition (IC50) was 55 nM at full-length human PLD1 (setting [1]) and 46 nM at full-length human PLD2 (setting [2]).
The matching figures for `Cc1cc(C(=O)N[C@@H](C)C[C@H]2CC[C@]3(CC2)OC(=O)NN=C3c2ccc(C#N)cc2Br)[nH]n1` [Example 199]: 10 nM and below 10 nM.
The matching figures for `[2H]C([2H])([2H])NC(=O)C(=O)N[C@@H](C)CN1CCC2(CC1)OC(=O)NN=C2c1cc(C#N)ccc1Br` [Example 2-001]: 41 nM and below 10 nM.
The corresponding values for `CNC(=O)C(=O)N[C@@H](C)C[C@H]1CC[C@]2(CC1)OC(=O)NN=C2c1cnc(I)cc1C` [Example 172] are 23 nM and 12 nM.
`CNC(=O)C(=O)N[C@@H](C)C[C@H]1CC[C@]2(CC1)OC(=O)NN=C2c1ccc(F)cc1OC` [Example 54]: the IC50 at full-length human PLD1 (setting [1]) is 20 nM; on full-length human PLD2 (setting [2]), below 10 nM.
The matching figures for `CNC(=O)C(=O)N[C@@H](C)C[C@H]1CC[C@]2(CC1)OC(=O)NN=C2c1cnc(N2CCOCC2)cc1Cl` [Example 242]: 16 nM and below 10 nM.
The corresponding values for `COc1ccc(C2=NNC(=O)O[C@]23CC[C@@H](C[C@H](C)NC(=O)c2cc(Cl)no2)CC3)c(Br)c1` [Example 59] are below 10 nM and below 10 nM.
The matching figures for `CNC(=O)C(=O)N[C@@H](C)C[C@H]1CC[C@]2(CC1)OC(=O)NN=C2c1cnc(N2CCCC2)cc1C` [Example 165]: 19 nM and below 10 nM.
In the case of `Cc1cc(C(=O)N[C@@H](C)C[C@]2(O)CC[C@]3(CC2)OC(=O)NN=C3c2ccc(F)cc2Br)[nH]n1` [Example 320, N—((S)-1-(cis-5-(2-bromo-4-fluorophenyl)-9-hydroxy-2-oxo-1-oxa-3,4-diazaspiro[5.5]undec-4-en-9-yl)propan-2-yl)-3-methyl-1H-pyrazole-5-carboxamide], the values for the IC50 at full-length human PLD1 (setting [1]) and at full-length human PLD2 (setting [2]) were 3880 nM and 1580 nM, respectively.
The matching figures for `CC(=O)NCC(=O)N[C@@H](C)C[C@H]1CC[C@]2(CC1)OC(=O)NN=C2c1ccc(F)cc1Br` [Example 213]: 86 nM and 115 nM.
Consider `[2H]C([2H])([2H])NC(=O)C(=O)N[C@@H](C)C[C@]1(C#N)CC[C@@]2(CC1)OC(=O)NN=C2c1cc(F)c(F)cc1Br` [Example 2-140], for which the IC50 on full-length human PLD1 (column 1 of continuation tables 2-12 to 2-14, read-out: human PLD1 enzyme inhibitory activity IC50) is 17 nM; on full-length human PLD2 (column 2 of continuation tables 2-12 to 2-14, read-out: human PLD2 enzyme inhibitory activity IC50), below 10 nM.
Regarding `C[C@@H](C[C@]1(C#N)CC[C@@]2(CC1)OC(=O)NN=C2c1cc(C#N)ccc1Br)NC(=O)c1cc(Cl)no1` [Example 2-068], the half-maximal inhibitory concentration (IC50) on full-length human PLD1 (setting [1]) and at full-length human PLD2 (setting [2]) was below 10 nM each time.
Take `COc1cc(C)c(C2=NNC(=O)O[C@]23CC[C@@H](C[C@H](C)NC(=O)N2CCn4nncc4C2)CC3)cn1` [Example 235]: the half-inhibitory concentration (IC50) at full-length human PLD1 (setting [1]) is 35 nM; at full-length human PLD2 (setting [2]) it was 13 nM.
The corresponding values for `CNC(=O)C(=O)N[C@@H](C)C[C@H]1CC[C@]2(CC1)OC(=O)NN=C2c1cccc(Br)c1` [Example 24] are 41 nM and 31 nM.
The matching figures for `CNC(=O)C(=O)N[C@@H](C)C[C@H]1CC[C@]2(CC1)OC(=O)NN=C2c1ccc(OC(F)(F)F)cc1Br` [Example 80]: below 10 nM and below 10 nM.
The corresponding values for `C[C@@H](C[C@H]1CC[C@]2(CC1)OC(=O)NN=C2c1ccc(C#N)cc1Br)NC(=O)N1CCn2nccc2C1` [Example 270] are 17 nM and below 10 nM.
On to `C[C@@H](CN1CCC2(CC1)OC(=O)NN=C2c1ccc(C#N)cc1Br)NC(=O)c1cnn(C)c1` [Example 336], for which the IC50 was 33 nM at full-length human PLD1 (setting [1]) and below 10 nM on full-length human PLD2 (setting [2]).
The matching figures for `CNC1(C(=O)N[C@@H](C)C[C@H]2CC[C@]3(CC2)OC(=O)NN=C3c2ccc(F)cc2Br)COC1` [Example 124]: 638 nM and 2740 nM.
The corresponding values for `CNC(=O)/C=C\C(=O)N[C@@H](C)CN1CCC2(CC1)OC(=O)NN=C2c1cc(C#N)ccc1Br` [Example 2-063] are 173 nM and 106 nM.
Turning to `Cc1ccncc1C1=NNC(=O)O[C@]12CC[C@@H](C[C@H](C)NC(=O)c1cc3ccccc3o1)CC2` [Example 114], the IC50 on full-length human PLD1 (setting [1]) was 13 nM; at full-length human PLD2 (setting [2]), below 10 nM.
For `CNC(=O)C(=O)N[C@@H](C)C[C@H]1CC[C@]2(CC1)OC(=O)NN=C2c1cnc(N2C[C@H]3C[C@@H]2CO3)cc1C` [Example 267], the concentration for half-maximal inhibition (IC50) at full-length human PLD1 (setting [1]) was 26 nM; on full-length human PLD2 (setting [2]) it was below 10 nM.
The matching figures for `C[C@H](O)C(=O)N[C@@H](C)C[C@H]1CC[C@]2(CC1)OC(=O)NN=C2c1ccc(F)cc1Br` [Example 29]: 999 nM and 1720 nM.
As to `C[C@@H](C[C@H]1CC[C@]2(CC1)OC(=O)NN=C2c1cc(C#N)ccc1Br)NC(=O)c1cc(C2CC2)n[nH]1` [Example 2-069], the IC50 on full-length human PLD1 (setting [1]) and on full-length human PLD2 (setting [2]) was below 10 nM throughout.
Take `Cc1cc(C(=O)N[C@@H](C)C[C@H]2CC[C@]3(CC2)OC(=O)NN=C3c2ccccc2OC(F)(F)F)[nH]n1` [Example 110]: the 50% inhibitory concentration (IC50) at full-length human PLD1 (setting [1]) was 83 nM; on full-length human PLD2 (setting [2]), 99 nM.
The matching figures for `CNC(=O)C(=O)N[C@@H](C)CN1CCC2(CC1)OC(=O)NN=C2c1cc(C#N)ccc1Br` [Example 300]: 38 nM and below 10 nM.
Turning to `CNC(=O)/C=C/C(=O)N[C@@H](C)CN1CCC2(CC1)OC(=O)NN=C2c1cc(C#N)ccc1Br` [Example 2-041], the IC50 at full-length human PLD1 (setting [1]) stood at 148 nM; on full-length human PLD2 (setting [2]), 103 nM.
Take `C[C@@H](C[C@H]1CC[C@]2(CC1)OC(=O)NN=C2c1ccc(S(C)(=O)=O)cc1Br)NC(=O)c1ccccc1` [Example 49]: the IC50 at full-length human PLD1 (setting [1]) was found to be 31 nM; at full-length human PLD2 (setting [2]) it was 11 nM.
